Experimental data taken from paper PMC9369419 (International Journal of Molecular Sciences, 2022).

Key:
GluK2 = molecular target: T1, GluK2 (Rattus norvegicus, UniProt P42260); test: Radioligand binding at recombinant homomeric GluK2 in Sf9 membranes; details: recombinant rat homomeric receptor, [3H]-kainic acid, mean ± SEM
T1 construct: made in house; host or cells: Sf9 insect cells (membranes)
Procedure: (§1) Ligand binding affinities at recombinant rat homomeric GluA2, GluK1−3, and GluK5 were determined as previously detailed. […] The filters were dried at 70 °C for 1 h, and 50 μL/well Microscint 20 (PerkinElmer, Waltham, MA, USA) was added. Radioactivity was detected with a TopCounter (PerkinElmer, Waltham, MA, USA). GluA2 and GluK5 assays were filtered on GF/C type filters using Millipore 12-well filtration manifolds (Merck Life Science, Søborg, Denmark) and washed twice with ice-cold assay buffer. Filters were placed in pony vials (PerkinElmer, Waltham, MA, USA), 3 mL of Ultima Gold scintillation fluid (PerkinElmer, Waltham, MA, USA) was added, and DPM (disintegrations per minute) were determined using a TriCarb 2900 scintillation counter (PerkinElmer, Waltham, MA, USA).
(§2) All competition curves (n ≥ 3 per ligand) were determined in triplicate. Data were analyzed using GraphPad Prism 6 (GraphPad Software, San Diego, CA, USA) to determine ligand affinity (Ki) and Hill coefficient (nH) using the one-site Ki and four-parameter logistics equations, respectively.

GluK1 = molecular target: T2, GluK1 (Rattus norvegicus, UniProt P22756); test: Radioligand binding at recombinant homomeric GluK1 in Sf9 membranes; details: recombinant rat homomeric receptor, [3H]-(S)-NF608, mean ± SEM
T2 construct: made in house; host or cells: Sf9 insect cells (membranes)
Procedure: as §1, §2

mGluR2 = mGluR2 functional assay (Ca2+/Fluo-4, mGlu2/Gqo5-HEK293 cells); type: cell-based; details: 0.1 mM compound
Procedure: Culture media, serum, antibiotics and buffers for cell culture were obtained from Invitrogen (Paisley, UK). The Fluo-4/AM dye was obtained from Molecular Probes (Eugene, OR, USA), and Glu was purchased from Sigma-Aldrich. The construction and basic pharmacological characterization of the stable mGlu2/Gqo5-HEK293 cell line has been described previously.
Cell culture and Ca^2+/Fluo-4 Assay. The mGlu2/Gqo5-HEK293 cells were cultured in Dulbecco’s Modified Eagle Medium-Glutamax-I supplemented with 100 U/mL penicillin, 100 µg/mL streptomycin, 5% dialyzed fetal bovine serum, 100 µg/mL zeocin and 1 mg/mL G418. The cells were split into poly-D-lysine-coated black 96-well plates with clear bottoms (6 × 10^4 cells/well). The following day, the culture medium was aspirated, and the cells were incubated in 50 µL assay buffer (Hanks Buffered Salt Solution containing 20 mM HEPES, 1 mM CaCl2, 1 mM MgCl2 and 2.5 mM probenecid, pH 7.4) supplemented with […] Fluo–4/AM at 37 °C for 1 h. […] The 96-well plate was assayed in a FLEXStation (Molecular Devices, Crawley, UK) measuring emission (in fluorescence units (FU)) at 525 nm caused by excitation at 485 nm before and up to 90 s after the addition of 33.3 µL agonist-containing assay buffer. […]

GluA2 = molecular target: T3, GluA2 (Rattus norvegicus, UniProt P19491); test: Radioligand binding at recombinant homomeric GluA2 in Sf9 membranes; details: recombinant rat homomeric receptor, [3H]-(RS)-AMPA, mean ± SEM
T3 construct: made in house; host or cells: Sf9 insect cells (membranes)
Procedure: as §1, §2

GluK3 = molecular target: T4, GluK3 (Rattus norvegicus, UniProt P42264); test: Radioligand binding at recombinant homomeric GluK3 in Sf9 membranes; details: recombinant rat homomeric receptor, [3H]-kainic acid, mean ± SEM
T4 construct: made in house; host or cells: Sf9 insect cells (membranes)
Procedure: as §1, §2

GluK3a = molecular target: T5, GluK3a (Rattus norvegicus, UniProt P42264); test: Intracellular Ca2+ imaging assay, HEK293 cells expressing GluK3a; type: cell-based
T5 construct: expressed in transfected cells
Text: For the determination of antagonistic activity of compounds at GluK1, GluK3 and GluA2 receptors, stable HEK293 cell lines expressing rat GluK1b(Q), GluK3a, and GluA2(Q)i were created. A polyclonal stable cell line expressing GluK3a was created as described previously. For the creation of polyclonal stable cell lines expressing GluK1and GluA2 receptors, cDNA encoding blasticidin-S deaminase (blas) enzymes were inserted into the pIRES plasmid vector (Clontech, Mountain View, CA, USA) to create the plasmid vector pRES(blas). Subsequently, cDNA for rat GluK1(Q)1b and the flip isoform of rat GluA2(Q)i were inserted into pRES(blas) to create the expression constructs GluK1b(Q)pIRES(blas) and GluA2i(Q)pIRES(blas), respectively. These were used to transfect GripTite^TM HEK293 cells followed by selecting with 20 µg/mL blasticidin (Invivogen, Toulouse, France) and 0.50 mg/mL geneticin in the presence of 20 µM of the AMPA receptor antagonist CNQX (Tocris, Bristol, UK) until stably transfected GluK1b(Q) and GluA2(Q)i cell lines were obtained. For functional assays, cells were plated into clear-bottomed, black 96-well fluorescence culture plates (Corning, Vordingborg, Denmark), and when >70% confluent, the cells were loaded with 2 μM Fluo 4-AM calcium sensitive dye (Abcam, Cambridge, UK) and used for the imaging of agonist-evoked changes in intracellular Ca^2+ using a FlexStation I plate reader (Molecular Devices, San Jose, CA, USA). […] Changes in dye fluorescence in response to the addition of an agonist solution were then measured at 538 nm using excitation at 485 nm and emission cut-off at 515 nm. Baseline fluorescence was measured for 16 s before the addition of 50 µL agonist solution to each well of the assay plate, and fluorescence was measured for 120 to 160 s after addition of the agonists. Peak change in fluorescence was calculated as the difference between the maximal observed increase in fluorescence and pre-agonist baseline fluorescence. The agonist solutions contained 100 µM KA together with 300 µM of the KAR positive allosteric modulator BPAM344 (Sigma-Aldrich Chemical, St. Louis, MO, USA) for GluK1 and GluK3 experiments or 100 µM glutamate together with 100 µM of the AMPAR positive allosteric modulator cyclothiazide for GluA2 experiments (HelloBio, Bristol, UK). Responses were determined in at least triplicate at each compound concentration.

T5 sequence (P42264 32-919): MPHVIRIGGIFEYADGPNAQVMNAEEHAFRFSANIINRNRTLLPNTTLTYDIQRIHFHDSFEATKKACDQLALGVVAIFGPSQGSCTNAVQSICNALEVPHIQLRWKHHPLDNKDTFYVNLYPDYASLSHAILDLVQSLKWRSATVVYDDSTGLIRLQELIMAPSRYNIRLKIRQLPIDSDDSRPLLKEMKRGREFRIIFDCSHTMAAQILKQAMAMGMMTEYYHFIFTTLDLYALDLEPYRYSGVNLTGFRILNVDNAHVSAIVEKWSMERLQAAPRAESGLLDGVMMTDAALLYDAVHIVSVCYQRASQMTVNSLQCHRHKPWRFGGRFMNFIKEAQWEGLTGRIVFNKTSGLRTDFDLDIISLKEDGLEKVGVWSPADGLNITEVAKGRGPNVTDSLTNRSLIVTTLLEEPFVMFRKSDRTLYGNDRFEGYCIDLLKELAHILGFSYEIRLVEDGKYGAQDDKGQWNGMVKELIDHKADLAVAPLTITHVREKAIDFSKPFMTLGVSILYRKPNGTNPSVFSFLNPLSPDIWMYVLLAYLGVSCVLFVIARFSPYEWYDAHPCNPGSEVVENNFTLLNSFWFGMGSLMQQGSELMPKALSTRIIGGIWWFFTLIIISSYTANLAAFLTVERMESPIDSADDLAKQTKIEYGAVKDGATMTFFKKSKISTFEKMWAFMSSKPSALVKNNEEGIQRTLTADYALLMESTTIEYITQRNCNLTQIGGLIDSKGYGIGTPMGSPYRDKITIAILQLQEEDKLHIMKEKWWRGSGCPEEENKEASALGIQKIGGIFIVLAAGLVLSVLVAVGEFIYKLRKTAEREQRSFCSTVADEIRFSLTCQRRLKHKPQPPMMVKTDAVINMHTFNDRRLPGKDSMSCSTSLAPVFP
T3 sequence (P19491 22-883): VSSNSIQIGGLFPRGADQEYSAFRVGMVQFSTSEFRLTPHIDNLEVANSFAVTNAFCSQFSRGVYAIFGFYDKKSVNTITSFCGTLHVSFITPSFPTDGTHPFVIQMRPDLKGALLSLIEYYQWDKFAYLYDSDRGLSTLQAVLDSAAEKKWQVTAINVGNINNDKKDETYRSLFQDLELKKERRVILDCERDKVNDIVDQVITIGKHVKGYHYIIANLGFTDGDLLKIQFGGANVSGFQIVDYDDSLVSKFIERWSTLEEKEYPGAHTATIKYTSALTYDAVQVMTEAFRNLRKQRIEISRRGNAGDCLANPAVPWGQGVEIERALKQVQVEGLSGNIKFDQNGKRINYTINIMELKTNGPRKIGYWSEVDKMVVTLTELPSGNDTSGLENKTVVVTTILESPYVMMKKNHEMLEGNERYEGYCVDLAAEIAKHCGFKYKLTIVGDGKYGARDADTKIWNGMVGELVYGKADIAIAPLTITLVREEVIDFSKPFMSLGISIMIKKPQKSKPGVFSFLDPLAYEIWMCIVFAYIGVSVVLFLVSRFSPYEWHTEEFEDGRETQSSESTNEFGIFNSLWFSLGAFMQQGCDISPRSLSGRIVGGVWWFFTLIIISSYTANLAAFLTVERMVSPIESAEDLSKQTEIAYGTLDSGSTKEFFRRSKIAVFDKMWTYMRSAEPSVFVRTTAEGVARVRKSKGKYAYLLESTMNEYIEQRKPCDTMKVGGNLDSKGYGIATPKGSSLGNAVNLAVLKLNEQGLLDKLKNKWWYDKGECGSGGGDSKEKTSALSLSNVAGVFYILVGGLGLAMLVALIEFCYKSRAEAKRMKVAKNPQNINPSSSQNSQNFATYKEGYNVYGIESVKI
T1 sequence (P42260 32-908): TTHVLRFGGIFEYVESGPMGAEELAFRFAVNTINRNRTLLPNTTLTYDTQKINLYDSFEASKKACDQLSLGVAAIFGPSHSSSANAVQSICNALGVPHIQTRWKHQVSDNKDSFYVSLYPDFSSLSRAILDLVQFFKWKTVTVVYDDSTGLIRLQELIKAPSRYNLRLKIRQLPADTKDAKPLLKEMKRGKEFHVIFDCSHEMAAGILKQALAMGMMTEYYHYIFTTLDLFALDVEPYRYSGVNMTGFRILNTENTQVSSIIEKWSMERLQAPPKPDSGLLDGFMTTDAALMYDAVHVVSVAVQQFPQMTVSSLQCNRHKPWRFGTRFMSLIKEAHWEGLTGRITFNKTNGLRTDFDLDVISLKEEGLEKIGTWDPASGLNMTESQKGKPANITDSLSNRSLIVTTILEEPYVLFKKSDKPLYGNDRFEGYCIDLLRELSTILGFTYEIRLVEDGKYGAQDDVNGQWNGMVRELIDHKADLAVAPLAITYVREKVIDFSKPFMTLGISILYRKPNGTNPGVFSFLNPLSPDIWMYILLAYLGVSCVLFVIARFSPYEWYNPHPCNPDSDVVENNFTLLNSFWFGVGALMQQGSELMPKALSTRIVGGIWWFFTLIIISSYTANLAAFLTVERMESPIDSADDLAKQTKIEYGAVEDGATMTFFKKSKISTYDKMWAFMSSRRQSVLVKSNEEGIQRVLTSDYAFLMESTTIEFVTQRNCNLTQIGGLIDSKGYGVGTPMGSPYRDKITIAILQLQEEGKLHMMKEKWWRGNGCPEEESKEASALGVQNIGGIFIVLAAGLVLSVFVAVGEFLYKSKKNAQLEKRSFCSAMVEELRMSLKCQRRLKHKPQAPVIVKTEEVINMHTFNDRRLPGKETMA
T2 sequence (P22756 31-949): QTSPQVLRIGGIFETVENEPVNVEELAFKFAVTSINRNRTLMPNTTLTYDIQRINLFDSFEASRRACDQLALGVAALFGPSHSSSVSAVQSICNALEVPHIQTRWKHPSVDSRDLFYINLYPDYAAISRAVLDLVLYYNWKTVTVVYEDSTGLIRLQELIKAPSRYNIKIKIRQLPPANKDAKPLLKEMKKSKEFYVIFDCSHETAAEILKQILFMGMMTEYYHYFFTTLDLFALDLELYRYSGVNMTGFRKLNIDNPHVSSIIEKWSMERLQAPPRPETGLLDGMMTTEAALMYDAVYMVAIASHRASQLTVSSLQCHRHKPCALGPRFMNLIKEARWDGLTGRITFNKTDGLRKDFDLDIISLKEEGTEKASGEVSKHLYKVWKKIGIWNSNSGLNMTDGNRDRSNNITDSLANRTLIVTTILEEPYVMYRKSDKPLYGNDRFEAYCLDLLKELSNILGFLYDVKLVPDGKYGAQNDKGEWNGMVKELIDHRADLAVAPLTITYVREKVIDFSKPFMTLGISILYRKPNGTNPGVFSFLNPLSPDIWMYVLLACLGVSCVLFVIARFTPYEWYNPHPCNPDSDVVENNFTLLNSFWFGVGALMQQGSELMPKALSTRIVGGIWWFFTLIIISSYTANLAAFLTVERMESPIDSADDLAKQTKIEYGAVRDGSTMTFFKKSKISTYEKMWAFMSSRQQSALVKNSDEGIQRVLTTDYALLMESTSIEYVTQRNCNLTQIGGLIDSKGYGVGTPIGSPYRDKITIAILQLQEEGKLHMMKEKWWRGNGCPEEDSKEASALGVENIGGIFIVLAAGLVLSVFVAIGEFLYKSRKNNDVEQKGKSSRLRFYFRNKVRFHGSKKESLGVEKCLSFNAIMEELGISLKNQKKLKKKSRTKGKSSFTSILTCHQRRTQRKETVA
T4 sequence (P42264 32-919): as the sequence (P42264 32-919) above

Ki (GluK2): > 100 µM
Ki (GluK1): ~100 µM
Ki (GluA2): > 100 µM
Ki (GluK3): 0.25 ± 0.01 µM
inhibition of agonist-evoked responses at GluK3 (GluK3a; 10 µM compound, Ca2+ fluorescence): full inhibition
IC50 (GluK3a; 100 µM KA + 300 µM BPAM344, Ca2+ fluorescence, read-out: IC50, antagonism of agonist-evoked responses at GluK3): 3.6 µM
SMILES: O=C(Nn1c(=O)c(=O)[nH]c2cc(C#Cc3cnc4cccnn34)ccc21)c1ccccc1 [Compound 28]
agonist or antagonist activity at mGluR2 (mGluR2): neither agonistic nor antagonistic
